Calls of active or inactive are those of the source. The rule behind the calls is not given here.
Columns and labels:
[1] = target: Calcium/calmodulin-dependent protein kinase type 1D (Homo sapiens) (UniProt Q8IU85)
[2] = target: T1, Myotonin-protein kinase (Homo sapiens) (UniProt Q09013)
T1 sequence (whole entry): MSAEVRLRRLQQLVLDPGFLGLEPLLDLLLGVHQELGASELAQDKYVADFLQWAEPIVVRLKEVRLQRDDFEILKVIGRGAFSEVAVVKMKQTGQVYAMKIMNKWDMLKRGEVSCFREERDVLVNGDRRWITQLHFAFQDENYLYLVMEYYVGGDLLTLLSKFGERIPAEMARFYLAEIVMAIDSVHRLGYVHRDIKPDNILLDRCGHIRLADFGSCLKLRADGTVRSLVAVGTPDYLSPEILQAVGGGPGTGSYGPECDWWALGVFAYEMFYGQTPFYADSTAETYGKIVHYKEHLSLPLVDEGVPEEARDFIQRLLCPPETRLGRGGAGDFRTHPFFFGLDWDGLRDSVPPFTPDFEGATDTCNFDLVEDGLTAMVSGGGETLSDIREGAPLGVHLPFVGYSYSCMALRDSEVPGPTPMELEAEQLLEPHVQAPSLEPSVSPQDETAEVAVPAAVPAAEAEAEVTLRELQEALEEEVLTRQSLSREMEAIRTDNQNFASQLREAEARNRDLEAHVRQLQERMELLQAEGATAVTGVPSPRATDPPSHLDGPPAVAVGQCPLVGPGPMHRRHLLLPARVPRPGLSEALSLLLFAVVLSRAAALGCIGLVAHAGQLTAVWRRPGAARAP

[3] = Inhibition of Cdk4/cyclin D1
[4] = target: T2, Serine/threonine-protein kinase 4 (Homo sapiens) (UniProt Q13043)
T2 sequence (whole entry): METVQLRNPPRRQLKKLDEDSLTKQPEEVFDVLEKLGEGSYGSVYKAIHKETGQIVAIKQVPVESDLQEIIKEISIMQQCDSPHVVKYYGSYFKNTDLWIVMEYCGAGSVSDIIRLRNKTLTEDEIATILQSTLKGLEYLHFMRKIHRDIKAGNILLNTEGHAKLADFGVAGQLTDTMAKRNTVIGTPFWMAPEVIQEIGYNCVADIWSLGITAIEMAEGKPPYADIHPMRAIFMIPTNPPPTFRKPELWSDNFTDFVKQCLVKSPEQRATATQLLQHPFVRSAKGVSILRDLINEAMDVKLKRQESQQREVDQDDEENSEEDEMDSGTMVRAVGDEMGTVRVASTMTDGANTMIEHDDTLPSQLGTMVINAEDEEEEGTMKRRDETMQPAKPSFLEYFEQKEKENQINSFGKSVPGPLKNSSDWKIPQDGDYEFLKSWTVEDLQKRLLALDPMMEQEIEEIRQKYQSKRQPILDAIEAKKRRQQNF

[5] = target: T3, Serine/threonine-protein kinase VRK1 (Homo sapiens) (UniProt Q99986)
T3 sequence (whole entry): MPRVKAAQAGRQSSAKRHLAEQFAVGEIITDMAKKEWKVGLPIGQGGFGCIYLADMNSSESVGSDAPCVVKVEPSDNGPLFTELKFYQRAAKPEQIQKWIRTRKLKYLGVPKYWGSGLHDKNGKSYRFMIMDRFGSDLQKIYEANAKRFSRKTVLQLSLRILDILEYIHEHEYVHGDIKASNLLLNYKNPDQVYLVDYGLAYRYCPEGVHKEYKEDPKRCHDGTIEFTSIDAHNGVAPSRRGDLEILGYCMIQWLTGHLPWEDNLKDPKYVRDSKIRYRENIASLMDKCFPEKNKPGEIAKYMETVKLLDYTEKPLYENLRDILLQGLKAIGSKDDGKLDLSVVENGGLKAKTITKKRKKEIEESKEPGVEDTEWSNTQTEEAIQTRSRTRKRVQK

[6] = target: Myosin light chain kinase, smooth muscle (Homo sapiens, UniProt Q15746); assay: Inhibition of myosin light chain kinase
Chain of Myosin light chain kinase, smooth muscle (Q15746 whole entry): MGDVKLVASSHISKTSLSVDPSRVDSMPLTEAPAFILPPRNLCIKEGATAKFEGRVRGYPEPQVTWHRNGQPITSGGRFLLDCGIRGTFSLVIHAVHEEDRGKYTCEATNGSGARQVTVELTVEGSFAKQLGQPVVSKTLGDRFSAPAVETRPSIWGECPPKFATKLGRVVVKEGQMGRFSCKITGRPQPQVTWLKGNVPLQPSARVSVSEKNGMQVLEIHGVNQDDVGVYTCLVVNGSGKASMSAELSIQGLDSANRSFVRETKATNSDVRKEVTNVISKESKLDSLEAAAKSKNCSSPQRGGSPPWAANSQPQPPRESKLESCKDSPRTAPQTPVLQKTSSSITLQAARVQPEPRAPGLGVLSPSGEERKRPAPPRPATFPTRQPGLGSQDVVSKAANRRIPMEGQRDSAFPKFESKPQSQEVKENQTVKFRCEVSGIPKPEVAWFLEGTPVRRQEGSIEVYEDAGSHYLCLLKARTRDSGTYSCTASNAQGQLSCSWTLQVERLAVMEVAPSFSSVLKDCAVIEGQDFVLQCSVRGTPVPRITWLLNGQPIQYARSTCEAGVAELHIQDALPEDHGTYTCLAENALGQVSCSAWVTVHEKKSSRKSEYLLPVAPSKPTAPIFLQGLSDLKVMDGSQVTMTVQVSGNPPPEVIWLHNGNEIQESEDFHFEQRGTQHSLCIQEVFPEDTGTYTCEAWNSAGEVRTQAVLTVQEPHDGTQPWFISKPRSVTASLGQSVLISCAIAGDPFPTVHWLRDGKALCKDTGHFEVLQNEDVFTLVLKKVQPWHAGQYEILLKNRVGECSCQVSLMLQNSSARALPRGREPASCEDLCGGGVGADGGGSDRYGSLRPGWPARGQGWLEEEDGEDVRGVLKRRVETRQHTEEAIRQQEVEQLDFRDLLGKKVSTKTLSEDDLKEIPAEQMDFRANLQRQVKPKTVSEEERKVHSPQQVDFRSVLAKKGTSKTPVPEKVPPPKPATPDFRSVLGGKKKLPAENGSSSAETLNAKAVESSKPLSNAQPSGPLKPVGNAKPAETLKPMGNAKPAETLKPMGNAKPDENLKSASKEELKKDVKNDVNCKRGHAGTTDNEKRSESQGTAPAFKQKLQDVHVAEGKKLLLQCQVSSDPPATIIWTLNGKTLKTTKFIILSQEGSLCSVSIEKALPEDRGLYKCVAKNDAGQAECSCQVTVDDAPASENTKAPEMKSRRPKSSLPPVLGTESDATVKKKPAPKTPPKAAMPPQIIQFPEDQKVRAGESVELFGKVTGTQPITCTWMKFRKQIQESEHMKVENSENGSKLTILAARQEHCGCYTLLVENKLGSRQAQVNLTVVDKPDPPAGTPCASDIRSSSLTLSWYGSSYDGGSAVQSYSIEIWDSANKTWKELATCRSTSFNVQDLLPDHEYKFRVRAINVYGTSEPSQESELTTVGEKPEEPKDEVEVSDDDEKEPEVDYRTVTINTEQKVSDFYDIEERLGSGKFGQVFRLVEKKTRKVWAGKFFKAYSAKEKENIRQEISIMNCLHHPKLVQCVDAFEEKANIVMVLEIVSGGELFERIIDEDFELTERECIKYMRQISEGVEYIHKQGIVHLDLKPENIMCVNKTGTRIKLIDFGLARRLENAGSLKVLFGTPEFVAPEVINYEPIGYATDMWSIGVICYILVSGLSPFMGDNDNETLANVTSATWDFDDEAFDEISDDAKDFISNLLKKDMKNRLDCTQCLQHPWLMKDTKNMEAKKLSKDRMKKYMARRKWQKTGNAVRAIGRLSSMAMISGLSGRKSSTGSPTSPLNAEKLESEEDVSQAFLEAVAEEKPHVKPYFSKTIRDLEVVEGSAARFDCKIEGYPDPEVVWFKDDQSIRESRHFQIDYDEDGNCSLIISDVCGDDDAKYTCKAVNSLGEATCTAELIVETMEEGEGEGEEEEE

[7] = target: Mitogen-activated protein kinase 3 (Homo sapiens, UniProt P27361); assay: Inhibition of ERK1
Chain of Mitogen-activated protein kinase 3 (P27361 whole entry): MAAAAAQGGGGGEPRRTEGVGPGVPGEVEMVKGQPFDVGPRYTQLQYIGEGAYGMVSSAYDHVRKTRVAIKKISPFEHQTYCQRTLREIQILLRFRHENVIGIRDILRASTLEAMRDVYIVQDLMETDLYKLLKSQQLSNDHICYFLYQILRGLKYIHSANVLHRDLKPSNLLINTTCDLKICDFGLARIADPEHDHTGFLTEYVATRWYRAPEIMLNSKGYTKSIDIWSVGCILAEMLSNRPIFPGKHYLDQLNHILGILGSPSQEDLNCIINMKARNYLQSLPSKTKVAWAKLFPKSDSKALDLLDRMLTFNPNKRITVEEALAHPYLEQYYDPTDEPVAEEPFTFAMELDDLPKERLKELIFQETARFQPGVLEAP

[8] = target: T4, Protein kinase C epsilon type (Homo sapiens, UniProt Q02156); assay: Inhibition of PKCepsilon
T4 sequence (Q02156 whole entry): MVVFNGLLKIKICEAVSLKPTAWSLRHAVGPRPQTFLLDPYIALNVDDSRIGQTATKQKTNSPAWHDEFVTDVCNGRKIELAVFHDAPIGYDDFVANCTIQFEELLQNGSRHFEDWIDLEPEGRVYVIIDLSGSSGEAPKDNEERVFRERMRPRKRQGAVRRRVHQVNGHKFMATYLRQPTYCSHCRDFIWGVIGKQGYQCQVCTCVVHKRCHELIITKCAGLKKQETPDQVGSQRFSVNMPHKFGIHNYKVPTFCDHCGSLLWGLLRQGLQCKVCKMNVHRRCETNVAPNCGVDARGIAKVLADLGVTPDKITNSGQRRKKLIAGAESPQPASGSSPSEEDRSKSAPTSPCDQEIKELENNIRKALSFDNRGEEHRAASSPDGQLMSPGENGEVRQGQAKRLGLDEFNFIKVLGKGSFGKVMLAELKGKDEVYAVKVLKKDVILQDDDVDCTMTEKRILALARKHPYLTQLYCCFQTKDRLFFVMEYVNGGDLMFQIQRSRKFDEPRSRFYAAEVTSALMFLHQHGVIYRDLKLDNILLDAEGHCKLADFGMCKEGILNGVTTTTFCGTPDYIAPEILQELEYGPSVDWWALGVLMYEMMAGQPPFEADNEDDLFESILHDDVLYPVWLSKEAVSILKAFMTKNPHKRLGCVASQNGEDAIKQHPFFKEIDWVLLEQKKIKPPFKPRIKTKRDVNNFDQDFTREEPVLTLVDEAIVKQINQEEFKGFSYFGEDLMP

[9] = target: Glycogen synthase kinase-3 beta (Homo sapiens, UniProt P49841); assay: Inhibition of GSK3-beta
Chain of Glycogen synthase kinase-3 beta (P49841 whole entry): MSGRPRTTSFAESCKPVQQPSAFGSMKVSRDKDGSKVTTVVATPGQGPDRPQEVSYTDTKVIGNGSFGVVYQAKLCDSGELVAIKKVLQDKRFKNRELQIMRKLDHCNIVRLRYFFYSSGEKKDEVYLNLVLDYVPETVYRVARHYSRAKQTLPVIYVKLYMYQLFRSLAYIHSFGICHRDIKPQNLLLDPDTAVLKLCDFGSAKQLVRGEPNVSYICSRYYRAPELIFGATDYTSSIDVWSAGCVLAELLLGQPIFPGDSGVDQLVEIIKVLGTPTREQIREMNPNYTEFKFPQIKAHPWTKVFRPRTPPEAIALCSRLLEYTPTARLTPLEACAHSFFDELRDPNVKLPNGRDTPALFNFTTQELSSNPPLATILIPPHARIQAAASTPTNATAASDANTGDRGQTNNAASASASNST

Chain of Calcium/calmodulin-dependent protein kinase type 1D (Homo sapiens) (Q8IU85 whole entry, looked up): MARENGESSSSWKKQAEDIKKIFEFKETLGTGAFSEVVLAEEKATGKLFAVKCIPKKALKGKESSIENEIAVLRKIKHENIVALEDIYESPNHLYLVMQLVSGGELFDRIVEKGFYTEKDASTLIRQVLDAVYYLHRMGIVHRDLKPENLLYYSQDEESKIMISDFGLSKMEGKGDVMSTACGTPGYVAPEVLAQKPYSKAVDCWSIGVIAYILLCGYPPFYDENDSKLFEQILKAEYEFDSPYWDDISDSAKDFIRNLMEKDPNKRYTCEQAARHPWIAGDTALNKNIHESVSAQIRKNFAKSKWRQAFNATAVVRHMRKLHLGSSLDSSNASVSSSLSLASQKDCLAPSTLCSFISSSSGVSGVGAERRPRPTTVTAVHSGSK

SMILES	ΔTm [1]	ΔTm [2]	ΔTm [4]	ΔTm [5]	other results
COc1ccc2c(c1)/C(=C/c1cnc[nH]1)C(=O)N2 [SU-9516]	0.5 °C	0.8 °C	8.1 °C	0.5 °C	IC50 [3]: 200 nM
O=S(=O)(c1cccc2c(Cl)cccc12)N1CCCNCC1	0 °C	-0.2 °C	0.9 °C	0.3 °C	Ki [6]: 3.8 µM
NS(=O)(=O)c1ccc(Nc2nc(OCC3CCCCC3)c3nc[nH]c3n2)cc1	0.8 °C	3.2 °C	1.4 °C	1.1 °C	IC50 [3]: 1600 nM
c1ccc(-c2n[nH]c3c2oc2ccccc23)cc1	0.6 °C	0 °C	4.3 °C	1 °C	IC50 [7]: ≥ 10 µM
COc1ccc(CNc2nc(N(CCO)CCO)nc3c2ncn3C(C)C)cc1	0.3 °C	-0.1 °C	0.4 °C	0.7 °C	IC50 [3]: 215000 nM
CC(=O)O/N=C1/C(=C2/C(=O)Nc3cc(Br)ccc32)Nc2ccccc21 [6-BROMOINDIRUBIN-3'-ACETOXIME]	-1.4 °C	0.7 °C	3.5 °C	0.3 °C	IC50 [3]: ≥ 10000 nM
N#C/C(=C(/N)Sc1ccc(N)cc1)c1ccccc1C(F)(F)F	0.3 °C	0.3 °C	0.8 °C	0.4 °C	IC50 [7]: > 10 µM
COc1ccc2c(c[n+](C)c3c4cc5c(cc4ccc23)OCO5)c1OC [CHELERYTHRINE CHLORIDE]	-5.3 °C	1.7 °C	-0.4 °C	-0.1 °C	IC50 [8]: 24 nM
O=C1Cc2c([nH]c3ccc(Br)cc23)-c2ccccc2N1 [KENPAULLONE]	1 °C	5.8 °C	4.9 °C	-0.1 °C	IC50 [7]: 20 µM
NCCNc1ncc(C(N)=O)c(Nc2cccc(C(F)(F)F)c2)n1	5.1 °C	3.9 °C	0.7 °C	3.6 °C	IC50 [8]: 5100 nM
N#CCCc1ccc2c(c1)-c1[nH]c3ccc([N+](=O)[O-])cc3c1CC(=O)N2 [ALSTERPAULLONE 2]	0.6 °C	4.8 °C	5.9 °C	1.1 °C	IC50 ([9]; read-out: Log IC50 (converted)): 100 nM; Log IC50 [3]: -7
CCOC(=O)c1cnc2oc3ccc(O)cc3c2c1-c1ccccc1	0.4 °C	-0.4 °C	3.4 °C	0.1 °C	Activity [3]: Active
NCCNS(=O)(=O)c1cccc2c(Cl)cccc12	0 °C	-1.1 °C	0.4 °C	0 °C	Ki [6]: 7.4 µM
O=C1C(Cl)=C(N2C(=O)CCC2=O)C(=O)c2ccccc21	-9.6 °C	-0.9 °C	-0.8 °C	-0.6 °C	IC50 [7]: 82.9 µM
Cc1[nH]c(/C=C2\C(=O)Nc3ccc(S(=O)(=O)N(C)c4cccc(Cl)c4)cc32)c(C)c1C(=O)N1CCN(C)CC1	0.4 °C	2.2 °C	0.1 °C	1.5 °C	–
Cc1cc(Nc2nc(-c3ccccc3)nc3ccccc23)n[nH]1	3.5 °C	1.9 °C	7.4 °C	0.8 °C	–
CN(C)S(=O)(=O)c1ccc2c(c1)/C(=C/c1cc3c([nH]1)CCCC3)C(=O)N2	1.4 °C	-0.3 °C	8.7 °C	0.3 °C	–

SMILES	ΔTm [1]	ΔTm [2]	ΔTm [4]	ΔTm [5]	other results
O=c1c(O)c(-c2ccc(O)c(O)c2)oc2cc(O)cc(O)c12 [QUERCETIN]	2.9 °C	3 °C	5.4 °C	1.4 °C	–
NC(=O)c1ccc2[nH]c(-c3ccc(Oc4ccc(Cl)cc4)cc3)nc2c1	1.1 °C	1.3 °C	-0.2 °C	0.5 °C	–
CCOC(=O)c1c(C)[nH]c(/C=C2\C(=O)Nc3ccccc32)c1C	0 °C	0.5 °C	3 °C	-1.7 °C	–
N#CC(C#N)=Cc1ccc(O)c(O)c1 [TYRPHOSTIN 23]	0.2 °C	0 °C	0.6 °C	0.1 °C	–
O=C1Nc2ccccc2/C1=C\c1ccc[nH]1	1.3 °C	-0.6 °C	7.7 °C	0.3 °C	–
CN(C)CCCn1cc(C2=C(c3c[nH]c4ccccc34)C(=O)NC2=O)c2ccccc21 [GF-109203]	1.1 °C	3.9 °C	5.7 °C	0.2 °C	–
CC[C@H](CO)Nc1nc(NCc2ccccc2)c2ncn(C(C)C)c2n1 [SELICICLIB]	0 °C	-0.7 °C	0.3 °C	0 °C	–
COc1cc2c(cc1OC)-c1n[nH]c(Nc3cccc(F)c3)c1C2	0.3 °C	2.4 °C	0.7 °C	0.4 °C	–
Nc1n[nH]c2nc3ccccc3nc12 [QUINOXALINE1]	0.2 °C	-0.1 °C	0.8 °C	0.2 °C	IC50 ([9]; read-out: IC50): 1000 nM
Cc1nc(N)sc1-c1ccnc(Nc2cccc([N+](=O)[O-])c2)n1	2.5 °C	7.6 °C	3 °C	–	Ki [3]: 53 nM
CC(C)c1nn(-c2c(Cl)cccc2Cl)c2nc(Cc3ccc(OCCO)cc3)[nH]c(=O)c12	0.1 °C	-1.2 °C	0.1 °C	–	IC50 [3]: 839 nM
COc1cc(OC)c(/C=C2\C(=O)Nc3ccccc32)c(OC)c1	-0.2 °C	0.2 °C	-0.1 °C	0.6 °C	–
C/C(O)=C(\C#N)C(=O)Nc1cc(Br)ccc1Br	0.3 °C	0 °C	0.2 °C	0 °C	–
O=C1Nc2ccc(S(=O)(=O)O)cc2/C1=C1/Nc2ccccc2/C1=N\O	0.7 °C	1.8 °C	7.4 °C	0 °C	IC50 ([9]; read-out: IC50): 80 nM
Cl.Cn1cc(C2=C(c3ccc4cc5n(c4c3)CCC(CN)C5)C(=O)NC2=O)c2ccccc21 (stereo unspecified)	0.3 °C	6 °C	7.1 °C	0.8 °C	IC50 [6]: 3.7 µM; IC50 [8]: 39 nM
CCOc1ccc(/C=C2/SC(=O)N(CCN)C2=O)cc1 [HIAZOLIDINEDIONE1]	-0.2 °C	1.4 °C	0.4 °C	0.3 °C	–

Reference: ChEMBL document CHEMBL1145498, “A systematic interaction map of validated kinase inhibitors with Ser/Thr kinases” (Proc Natl Acad Sci U S A, 2007)
